Patent publication US20240391862A1, “(1,4,5-TRISUBSTITUTED-1H-PYRAZOL-3-YL)OXY-2-ALKOXY ALKYL ACIDS AND THEIR DERIVATIVES, THEIR SALTS AND THEIR USE AS HERBICIDAL AGENTS” (Bayer AKtiengesellschaft, priority 2021, published 2024)

Legend:
TRZAS = experiment: Post-emergence herbicidal effect and crop plant compatibility, greenhouse pot test; type: in vivo, Triticum aestivum; conditions: for Post-emergence effect at 20 g/ha against TRZAS in %: one-leaf stage, rated visually after about 3 weeks vs untreated controls; for Post-emergence effect against TRZAS: visual rating about 3 weeks after treatment, crop plant
Excerpt: • ALOMY: Alopecurus myosuroides SETVI: Setaria viridis • AVEFA: Avena fatua POLCO: Fallopia convolvulus • AMARE: Amaranthus retroflexus ECHCG: Echinochloa crus-galli • LOLRJ: Lolium rigidum STEME: Stellaria media • VERPE: Veronica persica MATIN: Tripleurospermum inodorum • DIGSA: Digitaria sanguinalis ABUTH: Abutylon threophrasti • TRZAS: Triticum aestivum VIOTR: Viola tricolor • BRSNW: Brassica napus ZEAMX: Zea mays • PHBPU: Ipomoea purpurea GLXMA: Glycine max • ORYSA: Oryza sativa HORMU: Hordeum murinum
Seeds of monocotyledonous and dicotyledonous weeds and crop plants are placed in sandy loam in plastic or organic planting pots, covered with soil and cultivated in a greenhouse under controlled growth conditions. 2 to 3 weeks after sowing, the trial plants are treated at the one-leaf stage. The compounds of the invention, formulated in the form of wettable powders (WP) or as emulsion concentrates (EC), are then sprayed onto the green parts of the plants as aqueous suspension or emulsion with addition of 0.5% additive at a water application rate of 600 l/ha (converted). After the test plants have been kept in the greenhouse under optimum growth conditions for about 3 weeks, the activity of the preparations is rated visually in comparison to untreated controls. For example, 100% activity=the plants have died, 0% activity=like control plants.
Tables 20a to 38c below show the effects/crop compatibilities of selected compounds of the general formula (I) on various harmful plants at an application rate corresponding to 20 to 320 g/ha, which were obtained by the trial procedure specified above.

PHBPU = experiment: Post-emergence herbicidal effect, greenhouse pot test; type: in vivo, Ipomoea purpurea
Summary of the method: (§1)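 Greenhouse pot plants in sandy loam receive a one-leaf-stage spray at 20 to 320 g/ha. Activity is assessed visually around 3 weeks afterwards on a 0–100% scale, where 100% means the plants have died.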

SETVI = experiment: as above; type: in vivo, Setaria viridis; conditions: 320 g/ha
Summary of the method: as §1

AMARE = experiment: as above; type: in vivo, Amaranthus retroflexus; conditions: visual rating about 3 weeks after treatment
Summary of the method: as §1

ABUTH = experiment: as above; type: in vivo, Abutilon theophrasti; conditions: visual rating about 3 weeks after treatment
Summary of the method: as §1

VIOTR = experiment: as above; type: in vivo, Viola tricolor
Summary of the method: as §1

ECHCG = experiment: as above; type: in vivo, Echinochloa crus-galli; conditions: for Post-emergence effect against ECHCG: 20 g/ha, visual rating about 3 weeks after treatment
Summary of the method: as §1

VERPE = experiment: as above; type: in vivo, Veronica persica
Summary of the method: as §1

MATIN = experiment: as above; type: in vivo, Tripleurospermum inodorum
Summary of the method: as §1

AVEFA = experiment: as above; type: in vivo, Avena fatua; conditions: 320 g/ha, visual rating about 3 weeks after treatment
Summary of the method: as §1

DIGSA = experiment: as above; type: in vivo, Digitaria sanguinalis; conditions: 320 g/ha, visual rating about 3 weeks after treatment
Summary of the method: as §1

Row | SMILES | Post-emergence effect at 20 g/ha against TRZAS in % (TRZAS) | Post-emergence effect against TRZAS (TRZAS; 80 g/ha) | Post-emergence effect against TRZAS (TRZAS; 320 g/ha) | Post-emergence effect against PHBPU in % (PHBPU; 80 g/ha) | Post-emergence effect against PHBPU in % (PHBPU; 320 g/ha) | Post-emergence effect against SETVI in % (SETVI) | Post-emergence effect against AMARE (AMARE; 80 g/ha) | Post-emergence effect against AMARE (AMARE; 320 g/ha) | Post-emergence effect against ABUTH (ABUTH; 80 g/ha) | Post-emergence effect against ABUTH (ABUTH; 320 g/ha) | Post-emergence effect against VIOTR in % (VIOTR; 80 g/ha) | Post-emergence effect against VIOTR in % (VIOTR; 320 g/ha) | Post-emergence effect against ECHCG (ECHCG) | Post-emergence effect against ECHCG in % (ECHCG; 80 g/ha) | Post-emergence effect against ECHCG in % (ECHCG; 320 g/ha) | Post-emergence effect against VERPE in % (VERPE; 80 g/ha) | Post-emergence effect against VERPE in % (VERPE; 320 g/ha) | Post-emergence effect against MATIN in % (MATIN; 80 g/ha) | Post-emergence effect against MATIN in % (MATIN; 320 g/ha) | other results
1 | COC(=O)CCOC(=O)C(OC)Oc1nn(-c2cccc(C)c2F)c(-c2ccc(F)nc2)c1Br (centres unmarked) [Example I-95] | 0% | 0% | 0% | 90% | 90% | 90% | 80% | 90% | 80% | 90% | 80% | 90% | 80% | 90% | 100% | 80% | 90% | 80% | 80% | 
2 | CCOC(=O)C(OC)Oc1nn(-c2cccc(C)c2F)c(-c2ccc(F)nc2)c1Br (centres unmarked) [Example I-94] | 0% | 10% | 20% | 90% | 90% | 90% | 80% | 90% | 80% | 90% | 80% | 90% | 80% | 100% | 100% | 80% | 90% | 80% | 90% | Post-emergence effect against PHBPU in % (PHBPU; 20 g/ha): 80%; Post-emergence effect against AVEFA (AVEFA): 80%; Post-emergence effect against DIGSA (DIGSA): 80%
